These results are taken from ChEMBL document CHEMBL3991601, “The target landscape of clinical kinase drugs” (Science, 2017).

The target in test [1] is Ribosomal protein S6 kinase alpha-5 (Homo sapiens, UniProt O75582).
The target of test [2] is T1, Peroxisomal acyl-coenzyme A oxidase 1 (Homo sapiens, UniProt Q15067).
T1 sequence (Q15067 whole entry): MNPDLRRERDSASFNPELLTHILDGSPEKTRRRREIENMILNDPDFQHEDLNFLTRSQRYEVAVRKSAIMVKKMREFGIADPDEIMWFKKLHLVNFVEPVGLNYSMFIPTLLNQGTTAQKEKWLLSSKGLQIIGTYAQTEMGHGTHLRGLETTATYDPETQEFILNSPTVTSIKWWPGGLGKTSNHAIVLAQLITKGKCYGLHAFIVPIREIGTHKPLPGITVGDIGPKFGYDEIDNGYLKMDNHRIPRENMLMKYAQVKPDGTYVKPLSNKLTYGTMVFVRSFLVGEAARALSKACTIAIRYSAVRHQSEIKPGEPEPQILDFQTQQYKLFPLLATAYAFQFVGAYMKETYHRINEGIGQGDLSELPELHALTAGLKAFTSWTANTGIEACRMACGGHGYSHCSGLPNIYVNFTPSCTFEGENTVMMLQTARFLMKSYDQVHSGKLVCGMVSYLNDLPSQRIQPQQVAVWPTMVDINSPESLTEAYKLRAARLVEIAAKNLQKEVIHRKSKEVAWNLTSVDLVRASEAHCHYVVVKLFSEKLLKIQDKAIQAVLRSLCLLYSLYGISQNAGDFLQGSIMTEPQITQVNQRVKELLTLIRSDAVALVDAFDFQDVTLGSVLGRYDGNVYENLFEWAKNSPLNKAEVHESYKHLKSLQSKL

The target in a further test is T2, Scaffold protein ILK (Homo sapiens, UniProt Q13418).
T2 sequence (Q13418 whole entry): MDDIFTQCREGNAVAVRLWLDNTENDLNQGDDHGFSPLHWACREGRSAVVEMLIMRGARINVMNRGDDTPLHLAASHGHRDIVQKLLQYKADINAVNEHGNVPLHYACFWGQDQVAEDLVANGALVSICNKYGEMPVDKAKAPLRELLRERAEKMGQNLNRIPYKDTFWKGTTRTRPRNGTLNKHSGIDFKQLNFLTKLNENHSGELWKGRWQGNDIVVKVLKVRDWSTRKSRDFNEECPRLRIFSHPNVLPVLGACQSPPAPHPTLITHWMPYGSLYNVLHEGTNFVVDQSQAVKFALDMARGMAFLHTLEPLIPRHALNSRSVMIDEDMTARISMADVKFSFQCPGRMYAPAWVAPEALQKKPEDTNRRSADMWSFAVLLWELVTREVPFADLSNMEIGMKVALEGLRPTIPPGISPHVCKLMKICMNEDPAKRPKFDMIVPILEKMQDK

For the next test, the target named is T3, Activin receptor type-1B (Homo sapiens, UniProt P36896).
T3 sequence (P36896 whole entry): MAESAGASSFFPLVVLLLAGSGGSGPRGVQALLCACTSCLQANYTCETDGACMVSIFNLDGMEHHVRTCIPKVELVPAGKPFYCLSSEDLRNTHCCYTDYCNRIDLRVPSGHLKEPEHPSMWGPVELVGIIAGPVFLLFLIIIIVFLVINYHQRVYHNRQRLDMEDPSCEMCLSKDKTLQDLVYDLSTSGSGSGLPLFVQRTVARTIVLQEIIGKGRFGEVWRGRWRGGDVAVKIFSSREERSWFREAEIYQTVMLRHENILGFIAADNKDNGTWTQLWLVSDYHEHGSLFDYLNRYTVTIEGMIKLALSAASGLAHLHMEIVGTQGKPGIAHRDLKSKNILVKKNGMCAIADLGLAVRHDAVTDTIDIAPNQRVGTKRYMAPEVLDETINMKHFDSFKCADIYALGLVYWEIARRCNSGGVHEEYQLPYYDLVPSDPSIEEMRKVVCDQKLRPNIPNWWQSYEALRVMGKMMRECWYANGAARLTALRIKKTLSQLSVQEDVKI

Test [3] concerns the target Proto-oncogene tyrosine-protein kinase Src (Homo sapiens, UniProt P12931).
The target in test [4] is Mitogen-activated protein kinase kinase kinase 1 (Homo sapiens, UniProt Q13233).
Sequence of Mitogen-activated protein kinase kinase kinase 1 (Q13233 whole entry, canonical isoform): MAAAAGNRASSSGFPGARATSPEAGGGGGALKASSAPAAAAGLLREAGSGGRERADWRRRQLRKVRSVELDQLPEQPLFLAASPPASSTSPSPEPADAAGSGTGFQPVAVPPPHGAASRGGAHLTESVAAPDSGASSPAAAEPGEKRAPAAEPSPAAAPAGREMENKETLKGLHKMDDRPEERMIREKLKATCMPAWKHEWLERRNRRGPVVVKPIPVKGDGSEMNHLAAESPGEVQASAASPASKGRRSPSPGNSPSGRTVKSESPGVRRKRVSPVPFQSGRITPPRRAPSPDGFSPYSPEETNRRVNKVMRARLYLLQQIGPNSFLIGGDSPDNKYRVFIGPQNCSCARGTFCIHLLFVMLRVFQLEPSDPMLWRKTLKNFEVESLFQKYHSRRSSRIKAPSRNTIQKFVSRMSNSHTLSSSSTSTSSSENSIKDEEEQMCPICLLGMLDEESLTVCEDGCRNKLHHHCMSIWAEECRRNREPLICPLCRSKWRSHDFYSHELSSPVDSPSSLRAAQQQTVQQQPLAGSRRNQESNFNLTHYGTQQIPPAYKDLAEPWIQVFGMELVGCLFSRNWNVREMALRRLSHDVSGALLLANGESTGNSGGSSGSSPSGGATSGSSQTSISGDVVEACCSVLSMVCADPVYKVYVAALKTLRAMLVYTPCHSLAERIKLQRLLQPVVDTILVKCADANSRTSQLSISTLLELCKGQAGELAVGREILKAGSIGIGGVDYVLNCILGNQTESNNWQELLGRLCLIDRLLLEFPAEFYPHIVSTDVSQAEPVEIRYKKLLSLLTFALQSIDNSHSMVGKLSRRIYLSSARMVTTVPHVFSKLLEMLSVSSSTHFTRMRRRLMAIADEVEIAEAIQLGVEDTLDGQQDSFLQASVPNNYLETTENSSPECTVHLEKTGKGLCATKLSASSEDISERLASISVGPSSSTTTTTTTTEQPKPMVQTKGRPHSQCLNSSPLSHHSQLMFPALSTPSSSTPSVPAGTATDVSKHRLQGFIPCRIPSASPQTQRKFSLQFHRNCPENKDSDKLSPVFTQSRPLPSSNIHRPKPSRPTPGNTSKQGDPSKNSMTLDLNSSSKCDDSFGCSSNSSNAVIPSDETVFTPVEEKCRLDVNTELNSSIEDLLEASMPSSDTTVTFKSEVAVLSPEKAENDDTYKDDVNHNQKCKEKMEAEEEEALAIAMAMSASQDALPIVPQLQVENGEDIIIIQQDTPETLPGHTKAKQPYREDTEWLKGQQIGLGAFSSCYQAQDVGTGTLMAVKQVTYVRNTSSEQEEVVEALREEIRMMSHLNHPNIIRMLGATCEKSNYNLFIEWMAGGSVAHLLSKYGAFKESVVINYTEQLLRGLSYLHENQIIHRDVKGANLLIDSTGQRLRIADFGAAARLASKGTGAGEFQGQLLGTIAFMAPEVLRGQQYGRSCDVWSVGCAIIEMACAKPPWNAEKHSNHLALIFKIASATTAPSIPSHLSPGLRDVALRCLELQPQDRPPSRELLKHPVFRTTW
Test [5] concerns the target Casein kinase I isoform delta (Homo sapiens, UniProt P48730).
In test [6] the target is Tyrosine-protein kinase FRK (Homo sapiens, UniProt P42685).
Sequence of Tyrosine-protein kinase FRK (P42685 whole entry): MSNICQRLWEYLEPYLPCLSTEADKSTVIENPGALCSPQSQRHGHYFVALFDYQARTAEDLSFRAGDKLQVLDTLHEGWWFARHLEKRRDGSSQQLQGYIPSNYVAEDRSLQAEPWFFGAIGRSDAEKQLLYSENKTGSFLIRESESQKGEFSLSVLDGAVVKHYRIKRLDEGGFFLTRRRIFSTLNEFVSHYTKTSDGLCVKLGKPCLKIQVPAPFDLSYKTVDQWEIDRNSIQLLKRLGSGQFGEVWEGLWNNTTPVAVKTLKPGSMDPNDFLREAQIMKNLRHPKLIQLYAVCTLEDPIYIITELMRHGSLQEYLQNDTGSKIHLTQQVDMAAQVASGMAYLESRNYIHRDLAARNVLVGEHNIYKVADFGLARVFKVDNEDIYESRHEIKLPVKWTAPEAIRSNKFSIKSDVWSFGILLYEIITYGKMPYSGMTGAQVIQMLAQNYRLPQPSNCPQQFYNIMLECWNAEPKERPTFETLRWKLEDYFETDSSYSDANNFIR
The target of the next test is T4, Ephrin type-B receptor 3 (Homo sapiens, UniProt P54753).
T4 sequence (P54753 whole entry): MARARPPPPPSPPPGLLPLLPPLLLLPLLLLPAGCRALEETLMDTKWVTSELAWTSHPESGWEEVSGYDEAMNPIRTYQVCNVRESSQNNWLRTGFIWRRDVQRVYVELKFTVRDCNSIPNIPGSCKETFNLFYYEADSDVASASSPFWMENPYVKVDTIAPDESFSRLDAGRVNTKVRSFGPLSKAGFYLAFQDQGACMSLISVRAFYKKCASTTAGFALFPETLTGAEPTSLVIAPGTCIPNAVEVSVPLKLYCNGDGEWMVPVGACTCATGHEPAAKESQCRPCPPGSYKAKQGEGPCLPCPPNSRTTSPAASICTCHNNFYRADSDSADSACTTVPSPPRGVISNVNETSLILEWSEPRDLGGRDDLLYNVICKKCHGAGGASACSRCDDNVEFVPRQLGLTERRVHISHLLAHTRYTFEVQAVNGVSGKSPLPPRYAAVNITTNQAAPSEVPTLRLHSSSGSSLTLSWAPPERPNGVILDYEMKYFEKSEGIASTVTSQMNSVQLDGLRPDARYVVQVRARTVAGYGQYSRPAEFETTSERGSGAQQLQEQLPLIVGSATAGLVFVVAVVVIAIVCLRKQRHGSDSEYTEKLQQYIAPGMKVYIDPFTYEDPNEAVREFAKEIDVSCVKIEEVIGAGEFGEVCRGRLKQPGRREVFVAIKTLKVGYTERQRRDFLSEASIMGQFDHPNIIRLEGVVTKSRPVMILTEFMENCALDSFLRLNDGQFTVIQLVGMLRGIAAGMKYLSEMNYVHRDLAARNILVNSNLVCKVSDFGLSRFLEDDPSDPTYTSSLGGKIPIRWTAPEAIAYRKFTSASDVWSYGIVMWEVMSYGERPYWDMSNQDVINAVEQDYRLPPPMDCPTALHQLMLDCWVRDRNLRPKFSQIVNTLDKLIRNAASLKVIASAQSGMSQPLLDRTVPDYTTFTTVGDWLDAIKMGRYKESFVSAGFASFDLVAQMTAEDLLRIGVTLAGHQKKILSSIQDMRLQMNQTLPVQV

For test [7], the target named is Tyrosine-protein kinase HCK (Homo sapiens, UniProt P08631).
Sequence of Tyrosine-protein kinase HCK (P08631 whole entry): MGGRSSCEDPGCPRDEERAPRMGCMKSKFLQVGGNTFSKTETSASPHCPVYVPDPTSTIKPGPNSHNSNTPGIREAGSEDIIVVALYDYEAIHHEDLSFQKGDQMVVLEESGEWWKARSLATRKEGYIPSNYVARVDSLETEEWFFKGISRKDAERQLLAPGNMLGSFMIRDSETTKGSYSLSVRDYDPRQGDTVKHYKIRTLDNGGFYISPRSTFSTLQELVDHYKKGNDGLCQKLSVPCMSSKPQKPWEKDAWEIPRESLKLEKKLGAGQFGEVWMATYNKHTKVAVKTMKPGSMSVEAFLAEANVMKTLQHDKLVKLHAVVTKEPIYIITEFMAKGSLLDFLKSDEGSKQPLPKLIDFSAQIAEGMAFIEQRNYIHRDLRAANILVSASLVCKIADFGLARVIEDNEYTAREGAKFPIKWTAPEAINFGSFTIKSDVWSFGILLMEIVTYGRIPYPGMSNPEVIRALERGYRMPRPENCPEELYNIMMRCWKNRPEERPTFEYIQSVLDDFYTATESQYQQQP

Usually Kd stands for the equilibrium constant for the complex coming apart.

The source made the active and inactive calls. For most assays here, no stated cut-off is given here; in the data, actives have a measured Kd and inactives only a lower limit.

Sequence of Casein kinase I isoform delta (P48730 whole entry, canonical isoform): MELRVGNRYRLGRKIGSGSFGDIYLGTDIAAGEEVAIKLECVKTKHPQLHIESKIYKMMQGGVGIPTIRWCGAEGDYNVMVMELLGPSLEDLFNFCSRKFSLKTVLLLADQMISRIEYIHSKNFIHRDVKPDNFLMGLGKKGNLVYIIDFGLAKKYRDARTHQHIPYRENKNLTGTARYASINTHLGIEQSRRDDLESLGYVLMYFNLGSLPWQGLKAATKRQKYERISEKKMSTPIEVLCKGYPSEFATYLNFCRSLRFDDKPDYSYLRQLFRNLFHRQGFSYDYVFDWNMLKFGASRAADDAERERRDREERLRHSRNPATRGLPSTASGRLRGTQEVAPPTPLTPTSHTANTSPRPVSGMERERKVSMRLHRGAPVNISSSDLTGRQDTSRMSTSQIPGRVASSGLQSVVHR
Sequence of Ribosomal protein S6 kinase alpha-5 (O75582 whole entry): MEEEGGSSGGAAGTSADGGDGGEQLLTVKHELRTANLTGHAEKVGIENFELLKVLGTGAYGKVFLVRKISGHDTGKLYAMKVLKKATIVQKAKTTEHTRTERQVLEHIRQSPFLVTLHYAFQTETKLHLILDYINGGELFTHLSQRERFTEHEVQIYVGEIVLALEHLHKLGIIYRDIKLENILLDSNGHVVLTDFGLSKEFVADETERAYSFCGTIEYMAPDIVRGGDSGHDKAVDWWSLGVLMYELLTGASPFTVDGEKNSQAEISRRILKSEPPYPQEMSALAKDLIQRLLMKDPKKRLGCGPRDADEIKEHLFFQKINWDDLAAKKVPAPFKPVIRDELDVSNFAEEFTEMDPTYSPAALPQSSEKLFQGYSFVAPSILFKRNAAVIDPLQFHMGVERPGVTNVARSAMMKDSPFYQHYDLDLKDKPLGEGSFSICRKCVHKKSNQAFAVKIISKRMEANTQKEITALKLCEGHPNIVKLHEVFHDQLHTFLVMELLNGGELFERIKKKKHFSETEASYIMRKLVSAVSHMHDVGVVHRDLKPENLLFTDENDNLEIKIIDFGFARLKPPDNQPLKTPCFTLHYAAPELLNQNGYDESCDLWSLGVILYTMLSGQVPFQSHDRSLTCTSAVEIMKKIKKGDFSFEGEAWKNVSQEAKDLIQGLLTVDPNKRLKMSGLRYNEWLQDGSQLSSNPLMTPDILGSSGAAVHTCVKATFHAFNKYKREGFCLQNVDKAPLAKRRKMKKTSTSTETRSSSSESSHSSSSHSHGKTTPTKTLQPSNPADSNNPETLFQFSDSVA
Sequence of Proto-oncogene tyrosine-protein kinase Src (P12931 2-536 limits assumed): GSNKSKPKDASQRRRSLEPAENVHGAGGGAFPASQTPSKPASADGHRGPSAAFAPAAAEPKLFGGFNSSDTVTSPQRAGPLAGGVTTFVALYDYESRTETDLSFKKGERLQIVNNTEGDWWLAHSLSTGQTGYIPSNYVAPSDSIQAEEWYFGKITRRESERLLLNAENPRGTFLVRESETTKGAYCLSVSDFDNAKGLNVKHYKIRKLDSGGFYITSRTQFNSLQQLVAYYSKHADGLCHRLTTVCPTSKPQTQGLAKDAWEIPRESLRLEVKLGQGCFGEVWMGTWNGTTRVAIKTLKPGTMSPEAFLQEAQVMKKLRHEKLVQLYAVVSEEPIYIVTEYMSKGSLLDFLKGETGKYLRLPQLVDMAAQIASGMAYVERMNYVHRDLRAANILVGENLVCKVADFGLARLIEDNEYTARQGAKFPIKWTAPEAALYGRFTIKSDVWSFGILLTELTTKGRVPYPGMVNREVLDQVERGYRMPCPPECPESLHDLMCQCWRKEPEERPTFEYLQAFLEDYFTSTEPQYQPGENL

Turning to `COc1cc(Nc2ncc3c(n2)-c2ccc(Cl)cc2C(c2c(F)cccc2OC)=NC3)ccc1C(=O)O` [ALISERTIB], the Kd (in test [1]; in [2]; on Scaffold protein ILK; at Activin receptor type-1B; in test [3]; in test [4]) was > 30 µM (inactive) in each case.

On to `O=C(Nc1c[nH]nc1-c1nc2cc(CN3CCOCC3)ccc2[nH]1)NC1CC1` [AT-9283], for which the Kd in test [5] is > 30 µM (inactive); in test [6], > 30 µM (inactive); at Ephrin type-B receptor 3, > 30 µM (inactive); in [1], 1.25 µM (active); in test [2], > 30 µM (inactive); on Scaffold protein ILK it was > 30 µM (inactive). Further, the Kd at Activin receptor type-1B was 0.811 µM (active); in [7], 0.664 µM (active).

For `CNC(=O)c1ccccc1Sc1ccc2c(/C=C/c3ccccn3)n[nH]c2c1` [AXITINIB], the Kd (in test [2]; at Scaffold protein ILK) was > 30 µM (inactive) each time.

As for `C[C@@H](Oc1cc(-n2cnc3ccc(CN4CCN(C)CC4)cc32)sc1C(N)=O)c1ccccc1C(F)(F)F` [GSK-461364], the Kd (in test [2]; at Scaffold protein ILK) was > 30 µM (inactive) throughout.

For `CCn1cc(-c2ccnc3[nH]c(-c4cccc(CN(C)C)c4)cc23)c(-c2ccc(NC(=O)N(C)C)cc2)n1` [GSK-1070916], the Kd is > 30 µM (inactive) in test [6]; > 30 µM (inactive) at Ephrin type-B receptor 3; > 30 µM (inactive) in test [1]; > 30 µM (inactive) in [2]; > 30 µM (inactive) on Scaffold protein ILK; 1.21 µM (active) at Activin receptor type-1B. The Kd in test [7] and in test [4] was > 30 µM (inactive) throughout.

For the compound `CNC(=O)c1nn(C)c2c1C(C)(C)Cc1cnc(Nc3ccc(N4CCN(C)CC4)cc3)nc1-2` [MILCICLIB], the Kd in test [5] was 0.236 µM (active); in test [6], 3.02 µM (active); in [1], > 30 µM (inactive); in test [2], > 30 µM (inactive); at Scaffold protein ILK, > 30 µM (inactive); at Activin receptor type-1B, > 30 µM (inactive). For the same compound, the equilibrium dissociation constant (Kd) was 5.31 µM (active) in test [3], 1.32 µM (active) in test [7] and > 30 µM (inactive) in [4].

`Cc1[nH]c(/C=C2\C(=O)Nc3ccccc32)c(C)c1CCC(=O)O` [ORANTINIB]: the Kd (at Ephrin type-B receptor 3; in test [2]; on Scaffold protein ILK; on Activin receptor type-1B; in [4]) was > 30 µM (inactive) throughout.

In the case of `NC(=O)c1c(OCc2c(F)cc(Br)cc2F)nsc1NC(=O)NCCCCN1CCCC1` [OSI-632], the Kd at Ephrin type-B receptor 3 is > 30 µM (inactive); in test [2], > 30 µM (inactive); on Scaffold protein ILK, > 30 µM (inactive); on Activin receptor type-1B it was 0.004 µM (active); in [7], > 30 µM (inactive); in test [4] it was 0.135 µM (active).

For `CC(=O)NCC(=O)N1[C@@H]2CC[C@H]1c1ccc(Nc3ncc(C(F)(F)F)c(NC4CCC4)n3)cc12` [PF-03814735], the Kd (at Ephrin type-B receptor 3; in test [1]; in test [2]; on Scaffold protein ILK; at Activin receptor type-1B; in test [7]) was > 30 µM (inactive) each time. This compound also registered a Kd in test [4] of 2.18 µM.

As for `CNC(=O)c1cc(Oc2ccc(NC(=O)Nc3cc(C(C)(C)C)nn3-c3ccc4ncccc4c3)c(F)c2)ccn1` [REBASTINIB], the Kd (in test [5]; at Ephrin type-B receptor 3; in [2]; at Scaffold protein ILK; at Activin receptor type-1B; in test [4]) was > 30 µM (inactive) in each case.

As to `N#CC[C@H](C1CCCC1)n1cc(-c2ncnc3[nH]ccc23)cn1` [RUXOLITINIB], the Kd (in [2]; on Scaffold protein ILK) was > 30 µM (inactive) throughout.

With `CN1CCN(CCOc2cc(OC3CCOCC3)c3c(Nc4c(Cl)ccc5c4OCO5)ncnc3c2)CC1` [SARACATINIB], the Kd in [5] was > 30 µM (inactive); in test [6], 2.33 µM (active); at Ephrin type-B receptor 3, > 30 µM (inactive); in [1], > 30 µM (inactive); in test [2], > 30 µM (inactive); on Scaffold protein ILK it was > 30 µM (inactive). The Kd on Activin receptor type-1B was 0.142 µM (active); in [7] it was 0.1 µM (active); in [4] it was > 30 µM (inactive).

Consider `C[C@@H](NC(=O)c1ncnc(N)c1Cl)c1ncc(C(=O)Nc2cc(C(F)(F)F)c(Cl)cn2)s1` [TOVORAFENIB], for which the Kd in test [5] is > 30 µM (inactive); in test [6], 0.172 µM (active); on Ephrin type-B receptor 3 it was > 30 µM (inactive); in test [1] it was > 30 µM (inactive); on Scaffold protein ILK it was > 30 µM (inactive); at Activin receptor type-1B, > 30 µM (inactive). In addition, the Kd in test [3] is > 30 µM (inactive); in [7] it was > 30 µM (inactive); in test [4] it was 2.09 µM (active).

Consider `Cc1cc(Nc2ncnc3ccc(NC4=NC(C)(C)CO4)cc23)ccc1Oc1ccn2ncnc2c1` [TUCATINIB], for which the Kd (in [5]; in test [6]; at Ephrin type-B receptor 3; in test [1]; on Scaffold protein ILK; at Activin receptor type-1B) was > 30 µM (inactive) each time. For the same compound, the Kd in [3], in test [7] and in [4] was > 30 µM (inactive) each time.
